# In the supplement of paper PMC10307832:
# How the values were obtained:
# Assay in all cases: relative viability (nuclei count vs DMSO), 5 days (fraction); higher = more cells survive
# NPK76-II-72-1 + OSI-027 = compound: CC1CC(=O)N(C2=CN=C(N=C2N1C3CCCC3)NC4=C(C=C(C=C4)C(=O)NC5CCN(CC5)C)OC)C [NPK76-II-72-1] + COc1cccc2cc(-c3nc([C@H]4CC[C@H](C(=O)O)CC4)n4ncnc(N)c34)[nH]c12 [OSI-027] (partner 0.5 µM)
# Summary of the method: (§1)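 Lung cancer cell lines were pin-tool dosed in 1536-well plates on the day after seeding, with either a lone drug or a fixed anchor-drug dose plus five library-drug doses (not always all listed) in √10 steps. Nuclei were counted on 4× images after 5 days. Relative viability is the ratio of treated-well to vehicle-well nuclei counts, with each value a median of duplicate plates.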
# BI-2536 + Dasatinib = compound: CC[C@@H]1C(=O)N(C)c2cnc(Nc3ccc(C(=O)NC4CCN(C)CC4)cc3OC)nc2N1C1CCCC1 [BI-2536] + Cc1nc(Nc2ncc(C(=O)Nc3c(C)cccc3Cl)s2)cc(N2CCN(CCO)CC2)n1 [Dasatinib] (partner 0.075 µM)
# Summary of the method: as §1
# BI-2536 + Lapatinib = compound: CC[C@@H]1C(=O)N(C)c2cnc(Nc3ccc(C(=O)NC4CCN(C)CC4)cc3OC)nc2N1C1CCCC1 [BI-2536] + CS(=O)(=O)CCNCc1ccc(-c2ccc3ncnc(Nc4ccc(OCc5cccc(F)c5)c(Cl)c4)c3c2)o1 [Lapatinib] (partner 2 µM)
# Summary of the method: as §1
# [1] = compound: CC1CC(=O)N(C2=CN=C(N=C2N1C3CCCC3)NC4=C(C=C(C=C4)C(=O)NC5CCN(CC5)C)OC)C [NPK76-II-72-1] + CS(=O)(=O)N1CCN(Cc2cc3nc(-c4cccc5[nH]ncc45)nc(N4CCOCC4)c3s2)CC1 [Pictilisib] (partner 1 µM)
# Summary of the method: as §1
Cell Line,relative viability (NPK76-II-72-1 + OSI-027; first compound 0.01 µM),relative viability (NPK76-II-72-1 + OSI-027; first compound 0.03162 µM),relative viability (NPK76-II-72-1 + OSI-027; first compound 0.1 µM),relative viability (NPK76-II-72-1 + OSI-027; first compound 0.3162 µM),relative viability (NPK76-II-72-1 + OSI-027; first compound 1 µM),relative viability (BI-2536 + Dasatinib; first compound 0.01 µM),relative viability (BI-2536 + Dasatinib; first compound 0.03162 µM),relative viability (BI-2536 + Dasatinib; first compound 0.1 µM),relative viability (BI-2536 + Dasatinib; first compound 0.3162 µM),relative viability (BI-2536 + Dasatinib; first compound 1 µM),relative viability (BI-2536 + Lapatinib; first compound 0.01 µM),relative viability (BI-2536 + Lapatinib; first compound 0.03162 µM),relative viability (BI-2536 + Lapatinib; first compound 0.1 µM),relative viability (BI-2536 + Lapatinib; first compound 0.3162 µM),relative viability (BI-2536 + Lapatinib; first compound 1 µM),relative viability ([1]; first compound 0.01 µM),relative viability ([1]; first compound 0.03162 µM),relative viability ([1]; first compound 0.1 µM),relative viability ([1]; first compound 0.3162 µM),relative viability ([1]; first compound 1 µM)
NCI-H522,0.72,0.969,0.681,0.623,0.846,0.687,0.989,0.607,0.341,0.334,–,–,–,–,–,–,–,–,–,–
HCC-15,0.561,0.774,0.683,0.579,0.78,0.557,0.417,0.192,0.112,0.102,0.857,0.81,0.496,0.248,0.123,0.704,0.778,0.706,0.748,0.786
A-427,0.497,0.526,0.452,0.376,0.434,0.579,0.752,0.44,0.12,0.118,0.905,1.08,1,0.969,0.135,0.747,0.796,0.685,0.632,0.706
NCI-H2228,0.427,0.615,0.547,0.55,0.724,0.448,0.372,0.116,0.0877,0.0886,1.38,0.629,0.207,0.165,0.166,0.359,0.497,0.503,0.402,0.483
NCI-H1734,0.495,0.625,0.64,0.589,0.628,0.439,0.462,0.167,0.145,0.131,1.04,0.81,0.427,0.205,0.206,0.427,0.478,0.383,0.411,0.446
PC-14,0.778,0.935,0.981,0.667,1.08,0.269,–,0.0367,0.0318,0.0158,0.323,0.408,0.342,0.0746,0.0774,0.6,0.692,0.619,0.6,0.805
NCI-H1915,0.616,0.708,0.659,0.584,0.654,0.292,0.354,0.139,0.156,0.0656,0.882,0.965,0.752,0.62,0.0794,0.988,1.08,0.91,0.846,0.902
NCI-H1666,0.802,0.871,0.82,0.777,0.975,0.765,0.653,0.716,0.313,0.267,0.779,0.582,0.29,0.231,0.262,0.305,0.55,0.35,0.381,0.469
HCC-366,0.939,0.998,1.08,0.863,0.888,0.717,0.653,0.149,0.0225,0.0238,1.06,0.682,0.04,0.0163,0.0221,0.117,0.117,0.128,0.196,0.186
SK-MES-1,0.585,0.617,0.583,0.661,0.742,0.415,0.336,0.134,0.115,0.136,0.465,0.45,0.503,0.213,0.186,0.429,0.384,0.295,0.376,0.318
SW 1573,0.704,0.65,0.603,0.599,0.664,0.563,0.222,0.0892,0.0839,0.0938,1.1,1.2,1.12,0.186,0.18,0.425,0.497,0.498,0.455,0.463
NCI-H661,0.667,0.772,0.746,0.588,0.742,0.851,0.307,–,–,0.367,0.498,0.543,0.398,0.224,0.179,0.416,0.422,0.422,–,0.508
PC-3 [JPC-3],0.664,0.742,0.78,0.711,0.889,1.02,0.925,0.879,0.266,0.188,0.462,0.456,0.441,0.451,0.233,0.779,0.772,0.561,0.667,0.743
NCI-H1623,0.422,0.405,0.432,0.362,0.461,0.485,0.519,0.571,0.595,0.281,–,–,–,–,–,–,–,–,–,–
Calu-6,–,–,–,–,–,–,–,–,–,–,0.957,0.666,0.703,0.122,0.132,0.894,1.01,0.953,0.757,1.05
LC-2-ad,0.768,0.885,0.826,0.791,0.954,0.563,0.333,0.135,0.197,0.147,0.995,0.715,0.121,0.127,0.131,0.428,0.515,0.445,0.386,0.428
CAL-12T,0.626,0.787,0.601,0.683,0.823,0.387,0.287,0.0978,0.121,0.0997,0.646,0.799,0.582,0.186,0.177,0.448,0.39,0.42,–,0.453
